Source: patent US11464854B2, “Methods and compositions relating to adjuvants” (Children's Medical Center Corporation, priority 2017, dated 2022)

Legend:
[1] = system: cytokine and IFN-inducible gene expression in draining lymph nodes and spleen; format: in vivo, mice; settings: mice
[2] = system: PnPS-specific B cells; assay: Pneumococcal polysaccharide-specific B cells (ELISpot); format: in vivo, rhesus macaques (Macaca mulatta); settings: control condition, adjuvant alone
From the text: Characterization of pneumococcal polysaccharide-specific B cells. Rhesus macaque peripheral blood mononuclear cells (PBMCs) were labeled with anti-CD14-PE (clone M5E2), CD20-V450 (clone L27), CD27-PE.Cy7 (clone M-T271), CD4-FITC (clone SK3) Ab's (BD Biosciences). Sorting of CD14+ monocytes, CD20+CD27− naïve B cells, CD20+CD27+ memory B cells, and CD4+Th cells employed a FACSAria™ II cell sorter. Anti-pneumococcal B cells in peripheral blood were enumerated in sorted B cell populations. […] Secreted immunoglobulins were detected using horseradish peroxidase-conjugated goat-anti-rhesus immunoglobulin (Nordic Immunological Laboratories; Eindhoven, The Netherlands). Spots were developed using 3,3′,5,5′-Tetramethylbenzidine (TMB) (Mabtech, Mariemont; OH, USA) and visualized and counted using a series 5 ELISpot™ analyzer (Cellular Technology Limited, Shaker Heights; OH, USA). The fraction of pneumococcal polysaccharide-specific B cells was quantified as the ratio of the spots detected in polysaccharide-coated wells to spots detected in immunoglobulin-coated wells, after correction for dilution.

[3] = molecular target: T1, human TLR7 (Homo sapiens, UniProt Q9NYK1); settings: HEK293 cells stably expressing human TLR7 (ref. 24); cited from earlier work
T1 construct: host or cells: HEK293 with NF-kB-responsive SEAP reporter
T1 sequence (Q9NYK1 27-1049): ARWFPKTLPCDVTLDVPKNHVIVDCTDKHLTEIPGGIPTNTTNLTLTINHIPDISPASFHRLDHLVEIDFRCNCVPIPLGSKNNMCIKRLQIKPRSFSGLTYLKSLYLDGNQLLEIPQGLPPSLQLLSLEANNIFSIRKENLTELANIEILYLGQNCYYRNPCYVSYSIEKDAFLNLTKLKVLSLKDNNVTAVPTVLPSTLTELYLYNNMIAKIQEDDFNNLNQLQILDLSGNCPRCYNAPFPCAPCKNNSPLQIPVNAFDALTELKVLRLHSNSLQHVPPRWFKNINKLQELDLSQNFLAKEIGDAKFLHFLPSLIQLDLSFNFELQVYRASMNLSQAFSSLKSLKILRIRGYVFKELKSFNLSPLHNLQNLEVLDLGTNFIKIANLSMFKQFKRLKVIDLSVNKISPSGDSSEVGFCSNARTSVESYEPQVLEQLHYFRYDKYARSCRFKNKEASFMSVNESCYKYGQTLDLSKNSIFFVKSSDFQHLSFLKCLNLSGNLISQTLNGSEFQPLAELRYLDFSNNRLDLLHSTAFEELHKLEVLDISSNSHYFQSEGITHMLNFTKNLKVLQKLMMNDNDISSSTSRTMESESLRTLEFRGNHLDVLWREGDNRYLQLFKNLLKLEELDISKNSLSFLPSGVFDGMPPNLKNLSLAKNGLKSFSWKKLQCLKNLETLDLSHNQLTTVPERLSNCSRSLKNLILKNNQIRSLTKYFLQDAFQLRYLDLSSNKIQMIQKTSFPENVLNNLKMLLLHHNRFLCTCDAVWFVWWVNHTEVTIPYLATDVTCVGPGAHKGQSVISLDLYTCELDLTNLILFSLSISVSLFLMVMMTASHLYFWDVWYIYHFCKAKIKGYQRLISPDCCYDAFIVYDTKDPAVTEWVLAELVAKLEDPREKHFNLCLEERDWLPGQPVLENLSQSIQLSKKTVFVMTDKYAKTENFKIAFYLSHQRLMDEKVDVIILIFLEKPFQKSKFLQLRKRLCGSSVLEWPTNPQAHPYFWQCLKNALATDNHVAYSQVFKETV

[4] = system: adult human PBMCs; assay: Adult human PBMC stimulation

Row | SMILES | IFN-related and TLR7 gene expression in the spleens ([1]; SC administration) | cytokine mRNA expression ([1]; SC administration) | time of peak cytokine mRNA expression ([1]; single SC dose, lymph node tissue and splenocytes) [h] | non-specific polysaccharide in vitro activation of B cells [2] [%] | agonist activity, human TLR7 [3] | expression of CD123, HLA-D, CD80 and CD86 ([4]; 24 h, compared to unstimulated cells, flow cytometry) | cytokine skewing ([4]; adult PBMCs)
1 | CCCCCCCCCCCCCCCCCC(=O)NCCCCOn1c(CCCC)nc2c(N)nc3ccccc3c21 [3M-052, N-[4-[(4-amino-2-butyl-1H-imidazo[4,5-c]quinolin-1-yl)oxy]butyl]octadecanamide] | robust | little if any | 6 | ≤ 1.0 | Dual agonist activity |  | 
2 | CCCCc1nc2c(N)nc3ccccc3c2n1CCO [CRX-649] |  |  |  |  |  | increased expression | pro-inflammatory biased
